The values that follow come from patent US11370841B2, “Methods of treating fibroblast growth factor 19-mediated cancers and tumors” (NGM Biopharmaceuticals, Inc., priority 2016, dated 2022).

For the series, the system named is hepatocytes. Briefly: In vivo BrdU incorporation (osmotic pump, 6 days). The arrangement: species or system mice. The protocol:
In vivo BrdU incorporation. For surgical implant, mice were anesthetized with isoflurane, and osmotic pumps (#1002, Alzet) releasing 8.5 mg/kg/day 5-bromo-2-deoxyuridine (BrdU, Sigma) and 0.4 mg/kg/day FGF19 protein were implanted subcutaneously on the back on day 1. Incisions were closed with surgical clippers and 3-0 silk suture. Mice were euthanized on day 6, and serum and livers were collected for exposure and BrdU incorporation analysis.
Histology and immunohistochemistry. […] Hematoxylin and eosin staining was performed using standard methods. […] When indicated, sections were counterstained with hematoxylin.
Flow cytometry. For quantification of BrdU incorporation by flow cytometry, livers were minced in RPMI media containing 0.1% collagenase for 30 minutes at 37° C. and passed through 70 μm filter. […]. Cells were analyzed on a BD Caliper flow cytometer and data were collected using CellQuest software and analyzed using Flowjo program.
To determine the direct effect of FGF19 on hepatocyte proliferation in a cell autonomous manner, the proliferative effects of FGF19 in vivo and in isolated hepatocytes were compared by assessing the incorporation of 5-bromo-2-deoxyuridine (BrdU) into newly synthesized DNA. FGF19 was administered at a concentration of 0.4 mg/kg/day and BrdU was administered at 8.5 mg/kg/day. After being administered to mice for six days through an osmotic pump, recombinant FGF19 protein induced incorporation of BrdU into hepatocytes as evidenced by immunohistochemical staining (with hematoxylin) and by flow cytometry analysis (hepatocytes were stained with 7-AAD and anti-BrdU-APC) (FIGS. 2A and 2B). […] Plasma concentrations of FGF19 were 5.2±1.2 ng/mL at the end of the study (FIG. 2C).
In general terms: Dividing cells build labelled thymidine or BrdU into new DNA.

As for “FGF19: Fibroblast growth factor 19, mature human 194 amino acid polypeptide (SEQ ID NO: 1); recombinant protein or AAV-expressed”, the “BrdU-positive cells in liver (flow cytometry)” value (20 μg per mouse per day (0.4 mg/kg/day) by osmotic pump, six days) is on record as 9.2+1.5%. Also, for the setting “FGF19-treated mice, osmotic pump, six days”, the “PCNA and Ki-67 expression” value is given as “higher”. In addition, under “osmotic pump 0.4 mg/kg/day, day 6”, the “Plasma concentrations of FGF19 at the end of the study” value came out at 5.2 ± 1.2 ng/mL.
